Measurements published in patent US20180214400A1, “THE USE OF KAURANES COMPOUNDS IN THE MANUFACTURE OF MEDICAMENT FOR TREATMENT OF CADIAC HYPERTROPY AND PULMONARY HYPERTENSION” (KEY-PHARMA BIOMEDICAL INC., priority 2015, published 2018).

How the values were obtained:
TAC rats = test: Actin remodeling (FITC-phalloidin) and cardiac fibrosis (picrosirius red) in TAC rats; type: in vivo, Wistar rats; details: for level of myocardia F-actin (FITC-phalloidin staining): 9 weeks TAC, compound A 8 mg/kg/d, sildenafil 70 mg/kg/d; for reduction in interstitial fibrosis: 8 mg/kg/d
Description: TAC between the innominate artery and the left carotid artery was conducted to induce pressure overload for 3 weeks (3-week TAC) or 9 weeks (9-week TAC). Sham control animals underwent the same operation, but without aortic constriction. All surgical procedures were performed with animals anesthetized with 3% pentobarbital sodium injected intraperitoneally (i.p. 40 mg/kg). During the surgery period, rats were intubated and ventilated with a rodent ventilator (Harvard Apparatus, Holliston, Mass., USA). Both 3-week and 9-week TAC-exposed rats were randomly divided into five groups (n=8-10 rats) including a TAC vehicle control, COMPOUND A, low (TAC+COMPOUND A (L), 1 mg/kg/d), middle (TAC+COMPOUND A (M), 2 mg/kg/d), high (TAC+COMPOUND A (H), 8 mg/kg/d) dose group respectively, and sildenafil (TAC+Sil, 70 mg/kg/d) as a positive control group. Sham controls were all treated with vehicle. Acute and chronic mortality from the TAC procedure was <5%. The treat group was intra-gastric administrated with sodium salt of compound A which was solved in a mixture of saline and organic solvent of the same volume (1:1, 0.5 ml) and sildenafil which was solved in distilled water. All drugs and vehicle treatment were given twice a day after surgery for three days as designed. The animals were examined at 3 weeks and 9 weeks after surgery accordingly. At the end of the observation periods and after hemodynamic measurement in vivo, all animals were sacrificed and hearts were explanted for further Analyses. Tissue sections of rat hearts were fixed in 10% neutral-buffered formalin, embedded in paraffin, cut into […] serial sections, and then stained with haematoxylin and eosin (H&E), picrosirius red or phalloidin. Nikon system and Zeiss confocal microscope were used to capture digital images. Stained with H&E was to evaluate cell size, stained with picrosirius red (sigma CA) was to test fibrosis using standard procedure and the amount of F-actin was stained with phalloidin. We determined cross sectional cell area and interstitial collagen fraction using computer-assisted image analysis (Image-Pro Plus software), with the observer blinded as to tissue source. At least four or five different hearts were quantified for analysis. Some transcription factors important for hypertrophy influence actin dynamics, which is regulated by free G-actin and polymeric F-actin. A higher F-to-G actin content is an important result of the activation of hypertrophy pathways. The level of myocardia F-actin was measured by FITC-phalloidin staining. […] TAC increased the level of F actin, thus lead to actin dynamics. Both compound A and sildenafil can reduced the expression of F actin and maintain F/G actin balance. To determine whether compound A attenuates TAC-induced cardiac fibrosis, heart tissues were stained with picrosirius red to detect interstitial collagen distribution in left ventricular. In both 3-week and 9-week TAC groups, TAC induced significant interstitial fibrosis (P<0.05). The collagen content increased 5.7 fold and 7.5 fold in 3-week and 9-week TAC control groups, respectively, compared to sham control group.

cGMP = cGMP ELISA in neonatal rat fibroblasts; type: cell-based; details: 100 um, 3 h
Description: Neonatal rat cardiac fibroblasts were isolated from 1-2-day-old Sprague-Dawley rats as described previously. Briefly, hearts from newborn 1-2-day-old Sprague-Dawley rats were minced on ice, and cells were isolated by trypsin incubation at 37° C. Non-cardiomyocytes were separated from the cardiomyocytes by differential pre-plating, and then cardiomyocytes were removed with fibroblasts seeded in culture dishes. The cells were passaged after 3 days, using a 0.05% trypsin solution. Cells were cultured in DEME/F12 medium with 5% fetal calf serum, and maintained at 37° C., 5% CO2 condition. cGMP levels in the neonatal rat fibroblasts after treated with vehicle or compound A or sildenafil were measured with an ELISA kit following the manufacture's instruction. Quiescent cells were cultured with different doses of compound A ([…]) or sildenafil ([…]) for 3 h. After treatment, the cells were lysed with 0.1N HCl, and performed cGMP ELISA assay.

[1] = test system: mice exposed to chronic transverse aortic constriction; details: cited from earlier work
[2] = test system: Diabetic cardiomyopathy (DCM) rats; test: Streptozotocin-induced diabetic cardiomyopathy; type: in vivo, Wistar rats; details: STZ diabetes, 12-16 weeks
Description: Diabetic cardiomyopathy (DCM) Diabetic induced injury to the myocardium. DCM, induced by streptozotocin (STZ), along with the associated changes occurring in inflammation, oxidative stress and fibrosis markers. Wistar rats were randomly divided into four groups: group A (Normal control), group B (Diabetes), group […] group D (DM/TMZ, trimetazidine treatment). After 12-16 weeks, left ventricular function was measured by the pressure-volume system. Cardiac tissues were prepared for histological study by hematoxlyin and eosin, Sirius red staining as well as for assays of oxidative stress. Oxidative stress, inflammation, and fibrosis markers were evaluated by molecular biological techniques. All data were measured morphometrically and statistically analyzed.

dogs = test: Penile erection in male dogs; type: in vivo; details: relative higher dose
sarcolemma KATP channel = test: Sarcolemma KATP channel effect
Text: (§1) This invention disclosed exclusively that compound A per se had no effect on either sarcolemma or mitochondrial KATP channel. Instead, compound A is acting only as a sensitizer which render the KATP channel response greater to known KATP channel openers, such as pinacidil and to change of ATP.

[3] = test system: mitochondrial KATP channel; test: Mitochondrial KATP channel effect
Text: as §1

[4] = test system: hypertrophy cardiomyocytes; test: Cytosol Ca++ in hypertrophy cardiomyocytes; type: cell-based
Text: This invention disclosed a novel use of inotropic medicine selectively that is compound A can be used to improve the cardiac function in a deteriorative hypertrophy heart without increase cytosol Ca++ or oxygen consumption. In addition it was not worsening the ECG instead it improve the ECG in hypertrophy heart. This is due to that compound A can reduce cardiomyocytes cytosol Ca++ level but enhance only the peak of Ca++ transient during each contraction in hypertrophy cardiomyocytes. This novel finding makes compound A different from other known traditional inotropic medicine such digitalis and beta agonists such as epinephrine.

[5] = test system: cardiomyocyte from guinea pig; test: Electrophysiology in guinea pig cardiomyocyte after ischemia and reperfusion; type: cell-based
Text: This invention also disclosed that in cardiomyocyte from guinea pig, that compound A can reduce elongated QT segment and increased QT variations, further it prevent prolonged action potential, decrease resting potential and suppressed Herg (Ikr) currents as result of ischemia and reperfusion. Compound A can also as an scavenger to reduce ROS (reactive oxygen species). Therefore, it can be used for treatment of abnormal ECG in clinic diagnosed with above or used for diseases or clinic procedures which may involve above mentioned mechanism.

[6] = test system: acute ischemia-reperfusion heart injuries; details: cited from earlier work

SMILES | level of myocardia F-actin (FITC-phalloidin staining) (TAC rats) | inhibition effect on cardiac fibrosis compared to compound A (TAC rats; TAC rats) | Stimulated production of cGMP (cGMP) | chamber and cardiomyocytes hypertrophy [1] | reduction in interstitial fibrosis (TAC rats; 3-week TAC) | reduction in interstitial fibrosis (TAC rats; 9-week TAC) | cardiac hypertrophy [2] | penile erection (dogs) | effect on sarcolemma KATP channel per se (sarcolemma KATP channel) | KATP channel response to known openers such as pinacidil and to change of ATP (sarcolemma KATP channel; sarcolemma or mitochondrial not distinguished) | effect on mitochondrial KATP channel per se [3] | cardiomyocytes cytosol Ca++ level [4] | peak of Ca++ transient during each contraction [4] | decrease resting potential [5] | elongated QT segment and increased QT variations [5] | prolonged action potential [5] | suppressed Herg (Ikr) currents [5] | cardioprotective effect and arrhythmia [6]
CCCc1nn(C)c2c(=O)[nH]c(-c3cc(S(=O)(=O)N4CCN(C)CC4)ccc3OCC)nc12 [sildenafil, reference compound] | returned to control conditions | less inhibition effect | 141 ± 27% | suppresses | – | – | – | – | – | – | – | – | – | – | – | – | – | –
C[C@@]12CC[C@@H]3[C@@](CC[C@H]4[C@@]3(C)CCC[C@@]4(C)C(=O)O)(CC1=O)C2 [Compound A, (4α,8β,13β)-13-methyl-16-oxo-17-norkauran-18-oic acid] | returned to control conditions | – | – | – | 58.2% | 80.8% | significant inhibited | long lasting penile erection | had no effect | sensitizer | had no effect | reduce | enhance | prevent | reduce | prevent | prevent | cardioprotective effect
